Measurements published in ChEMBL document CHEMBL2169738, “Rational design of a low molecular weight, stable, potent, and long-lasting GPR103 aza-β3-pseudopeptide agonist” (J Med Chem, 2012).
The source made the active and inactive calls. No cut-off for these calls is given here. Numbered stars: 1 amine (or outer) side, 2 acyl side, 3 side chain; on linkers, the order of the positions; unused ones are H or OH. Square brackets hold non-standard residues; d marks the D form. Peptide text beside a SMILES is read from it. * marks the point of attachment. Acetyl(2-(piperazin-1-yl)) = O=C(CN1CCNCC1)*; azaβ3hArg = N=C(N)NCCCN(CC(=O)[*:2])N[*:1]; Hydrazinoacetyl = O=C(CNN[*:1])[*:2]; X5 = O=C(CN(Cc1ccccc1)N[*:1])[*:2]; X9 = O=C(CN(CC1CCCCC1)N[*:1])[*:2]; X1 = O=C(CN(CC(O)CO)N[*:1])[*:2]; X3 = CCCCN(CC(=O)[*:2])N[*:1]; X4 = CCCN(CC(=O)[*:2])N[*:1]; X6 = O=C(CN(CCO)N[*:1])[*:2]; X2 = NC(=O)CN(Cc1ccccc1)N*; X8 = CN(CC(=O)[*:2])N[*:1]; X7 = O=C(CN1CCCN1)*

How the values were obtained:
[1] = molecular target: T1, Pyroglutamylated RF-amide peptide receptor (Homo sapiens, UniProt Q96P65); assay: Antagonist activity at human GPR103 expressed in CHO cells co-expressing Galpha16 assessed as inhibition of human 26RFa-induced increase in intracellular calcium level by fluorimetry; type: functional, cell-based
T1 sequence (Q96P65 whole entry): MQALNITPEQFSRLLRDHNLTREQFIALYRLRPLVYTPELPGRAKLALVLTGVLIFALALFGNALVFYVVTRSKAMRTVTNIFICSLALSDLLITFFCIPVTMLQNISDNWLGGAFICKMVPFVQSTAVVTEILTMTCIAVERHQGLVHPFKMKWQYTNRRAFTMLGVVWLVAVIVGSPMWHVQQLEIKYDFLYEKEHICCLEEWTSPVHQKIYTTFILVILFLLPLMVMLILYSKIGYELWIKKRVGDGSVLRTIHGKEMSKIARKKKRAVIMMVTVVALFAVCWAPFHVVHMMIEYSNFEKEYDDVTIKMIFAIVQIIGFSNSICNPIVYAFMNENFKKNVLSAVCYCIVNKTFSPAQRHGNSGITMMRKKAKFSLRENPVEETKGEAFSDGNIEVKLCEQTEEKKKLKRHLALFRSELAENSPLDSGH

[2] = molecular target: T1, Pyroglutamylated RF-amide peptide receptor; assay: Agonist activity at human GPR103 expressed in CHO cells co-expressing Galpha16 assessed as increase in intracellular calcium level measured for 2 mins by fluorimetry; type: functional, cell-based
[3] = Half life in human serum by RP-HPLC; type: ADME, cell-free
[4] = molecular target: T1, Pyroglutamylated RF-amide peptide receptor; assay: Displacement of [125I]26RFa from human GPR103 expressed in HEK293 cells incubated for 1 h by gamma counter based method; type: cell-based
[5] = system: Mus musculus; assay: Orexigenic effect in Swiss albino CD1 mouse at 1.2 nmol, icv measured after every 30 mins for 60 to 90 mins; type: functional, organism-based
[6] = system: Mus musculus; assay: Orexigenic effect in icv dosed Swiss albino CD1 mouse assessed as cumulative food intake measured after 2 hrs; type: functional
[7] = system: Mus musculus; assay: Orexigenic effect in Swiss albino CD1 mouse at 0.012 to 1.2 nmol, icv measured for 30 mins; type: functional, organism-based
[8] = system: Mus musculus; assay: Orexigenic effect in Swiss albino CD1 mouse at 0.012 to 1.2 nmol, icv after 30 mins; type: functional, organism-based
[9] = system: Serum; assay: Compound degradation in human serum assessed as breakdown of N-terminal region incubated for 15 mins by RP-HPLC; type: ADME, cell-free; settings: 0.25 h
[10] = system: Mus musculus; assay: Orexigenic effect in icv dosed Swiss albino CD1 mouse measured after every 30 mins; type: functional, organism-based
[11] = system: Serum; assay: Compound degradation in human serum assessed as breakdown of N-terminal region incubated for 2 mins by RP-HPLC; type: ADME, cell-free
[12] = system: Mus musculus; assay: Orexigenic effect in Swiss albino CD1 mouse at 1.2 nmol, icv measured after every 30 mins for 90 to 120 mins; type: functional, organism-based
[13] = system: Serum; assay: Ratio of t1/2 of compound to t1/2 of 26RFa in human serum by RP-HPLC; type: ADME, cell-free

NCC(=O)NCC(=O)N[C@@H](Cc1ccccc1)C(=O)N[C@@H](CO)C(=O)NN(CC(=O)N[C@@H](CCCN=C(N)N)C(=O)N[C@@H](Cc1ccccc1)C(N)=O)Cc1ccccc1 (H-GGFS[X5]RF-NH2)
IC50 [1]: > 10000 nM | EC50 [2]: > 10000 nM

CC(C)C[C@H](NC(=O)[C@H](CC(N)=O)NC(=O)CNC(=O)[C@H](CC(C)C)NC(=O)[C@@H]1CCCN1C(=O)CNC(=O)[C@H](CO)NC(=O)[C@@H](N)[C@@H](C)O)C(=O)N[C@@H](C)C(=O)N[C@@H](CCC(=O)O)C(=O)N[C@@H](CCC(=O)O)C(=O)N[C@@H](CC(C)C)C(=O)N[C@@H](CC(N)=O)C(=O)NCC(=O)N[C@@H](Cc1ccc(O)cc1)C(=O)N[C@@H](CO)C(=O)N[C@@H](CCCNC(=N)N)C(=O)N[C@@H](CCCCN)C(=O)N[C@@H](CCCCN)C(=O)NCC(=O)NCC(=O)N[C@@H](Cc1ccccc1)C(=O)N[C@@H](CO)C(=O)N[C@@H](Cc1ccccc1)C(=O)N[C@@H](CCCNC(=N)N)C(=O)N[C@@H](Cc1ccccc1)C(N)=O (H-TSGPLGNLAEELNGYSRKKGGFSFRF-NH2)
half-life [3]: 6.9 min | IC50 [4]: 1.26 nM

CCCCN(CC(=O)N[C@@H](Cc1ccccc1)C(=O)N[C@@H](CCCNC(=N)N)C(=O)N[C@@H](Cc1ccccc1)C(N)=O)NC(=O)[C@H](Cc1ccccc1)NC(=O)CNC(=O)CN (H-GGF[X3]FRF-NH2)
EC50 [2]: 29800 nM

N=C(N)NCCC[C@H](NC(=O)[C@H](Cc1ccccc1)NC(=O)CN(CC(O)CO)NC(=O)[C@H](Cc1ccccc1)NC(=O)CN1CCCN1)C(=O)N[C@@H](Cc1ccccc1)C(N)=O (some centres not stated) (X7-F[X1]FRF-NH2)
EC50 [2]: 382 nM

NCC(=O)NCC(=O)N[C@@H](Cc1ccccc1)C(=O)NN(CC(=O)N[C@@H](Cc1ccccc1)C(=O)N[C@@H](CCCN=C(N)N)C(=O)N[C@@H](Cc1ccccc1)C(N)=O)CC1CCCCC1 (H-GGF[X9]FRF-NH2)
EC50 [2]: 1370 nM

N=C(N)NCCC[C@H](NC(=O)[C@H](Cc1ccccc1)NC(=O)[C@H](CO)NC(=O)[C@H](Cc1ccccc1)NC(=O)CNC(=O)CNN)C(=O)N[C@@H](Cc1ccccc1)C(N)=O (Hydrazinoacetyl-GFSFRF-NH2)
EC50 [2]: 429 nM

NC(=O)[C@H](Cc1ccccc1)NC(=O)[C@H](CCCN=C(N)N)NC(=O)[C@H](Cc1ccccc1)NC(=O)[C@H](CO)NC(=O)[C@H](Cc1ccccc1)NC(=O)CN1CCNCC1 ({Acetyl(2-(piperazin-1-yl))}-FSFRF-NH2)
EC50 [2]: 138 nM

NCC(=O)NCC(=O)N[C@@H](Cc1ccccc1)C(=O)NN(CC(=O)N[C@@H](Cc1ccccc1)C(=O)N[C@@H](CCCN=C(N)N)C(=O)N[C@@H](Cc1ccccc1)C(N)=O)CC(O)CO (some centres not stated) (H-GGF[X1]FRF-NH2)
EC50 [2]: 341 nM

CCCN(CC(=O)N[C@@H](Cc1ccccc1)C(=O)N[C@@H](CCCNC(=N)N)C(=O)N[C@@H](Cc1ccccc1)C(N)=O)NC(=O)[C@H](Cc1ccccc1)NC(=O)CN1CCNCC1 ({Acetyl(2-(piperazin-1-yl))}-F[X4]FRF-NH2)
EC50 [2]: 164 nM

CN(CC(=O)N[C@@H](Cc1ccccc1)C(=O)N[C@@H](CCCN=C(N)N)C(=O)N[C@@H](Cc1ccccc1)C(N)=O)NC(=O)[C@H](Cc1ccccc1)NC(=O)CNC(=O)CN (H-GGF[X8]FRF-NH2)
EC50 [2]: 1100 nM

NCC(=O)NCC(=O)N[C@@H](Cc1ccccc1)C(=O)N[C@@H](CO)C(=O)N[C@@H](Cc1ccccc1)C(=O)NN(CCCN=C(N)N)CC(=O)N[C@@H](Cc1ccccc1)C(N)=O (H-GGFSF[azaβ3hArg]F-NH2)
IC50 [1]: > 10000 nM | EC50 [2]: > 10000 nM

N=C(N)NCCC[C@H](NC(=O)[C@H](Cc1ccccc1)NC(=O)CN(CCO)NC(=O)[C@H](Cc1ccccc1)NC(=O)CNC(=O)CN)C(=O)N[C@@H](Cc1ccccc1)C(N)=O (H-GGF[X6]FRF-NH2)
EC50 [2]: 1090 nM

NCC(=O)NCC(=O)N[C@@H](Cc1ccccc1)C(=O)N[C@@H](CO)C(=O)N[C@@H](Cc1ccccc1)C(=O)N[C@@H](CCCN=C(N)N)C(=O)NN(CC(N)=O)Cc1ccccc1 (H-GGFSFR-X2)
IC50 [1]: > 10000 nM | EC50 [2]: > 10000 nM

N=C(N)NCCC[C@H](NC(=O)[C@H](Cc1ccccc1)NC(=O)[C@H](CO)NC(=O)[C@H](Cc1ccccc1)NC(=O)CNC(=O)CN)C(=O)N[C@@H](Cc1ccccc1)C(N)=O (H-GGFSFRF-NH2)
Activity [5]: Active | Activity [6]: 1833 mg | half-life [3]: 11.2 min | Activity [7]: Active | IC50 [4]: 8730 nM | Activity [8]: inactive

CCCN(CC(=O)N[C@@H](Cc1ccccc1)C(=O)N[C@@H](CCCN=C(N)N)C(=O)N[C@@H](Cc1ccccc1)C(N)=O)NC(=O)[C@H](Cc1ccccc1)NC(=O)CNC(=O)CN (H-GGF[X4]FRF-NH2)
IC50 [1]: > 10000 nM | EC50 [2]: > 10000 nM

NCC(=O)NCC(=O)NN(CC(=O)N[C@@H](CO)C(=O)N[C@@H](Cc1ccccc1)C(=O)N[C@@H](CCCN=C(N)N)C(=O)N[C@@H](Cc1ccccc1)C(N)=O)Cc1ccccc1 (H-GG[X5]SFRF-NH2)
EC50 [2]: 2340 nM

N=C(N)NCCC[C@H](NC(=O)[C@H](Cc1ccccc1)NC(=O)[C@H](CO)NC(=O)[C@H](Cc1ccccc1)NC(=O)CNNC(=O)CN)C(=O)N[C@@H](Cc1ccccc1)C(N)=O (H-G[Hydrazinoacetyl]FSFRF-NH2)
IC50 [4]: 2990 nM | EC50 [2]: 136 nM

N=C(N)NCCC[C@H](NC(=O)[C@H](Cc1ccccc1)NC(=O)CN(CC(O)CO)NC(=O)[C@H](Cc1ccccc1)NC(=O)CN1CCNCC1)C(=O)N[C@@H](Cc1ccccc1)C(N)=O (some centres not stated) ({Acetyl(2-(piperazin-1-yl))}-F[X1]FRF-NH2)
Stability [9]: Stable | Activity [10]: Dose-dependent effect | Stability [11]: Stable | Activity [12]: Active | Activity [6]: 1873 mg | half-life [3]: 35.6 min | IC50 [4]: 1990 nM | EC50 [2]: 93.6 nM | Ratio [13]: 5
